Patent publication US12492236B2, “Fusion proteins for the treatment of cardiometabolic diseases” (Shattuck Labs, Inc., priority 2022, dated 2025)
“Also recorded” adds a separate entry of the source. Where no end group is shown, it is not given here.

Legend:
GIPR = biological target: T1, GIPR (Rattus norvegicus, UniProt P43219); assay: pGloSensor-22F cAMP biosensor assay for GIPR agonism and antagonism in rat INS-1 cells; format: cell-based; design: dose or concentration left out as unconfirmed; details: mixed with GIP(Ag)
T1 construct: endogenous in cells; host or cells: rat INS-1 insulinoma cells (with cAMP-luciferase reporter / pGloSensor-22F biosensor)
T1 sequence (P43219 19-455): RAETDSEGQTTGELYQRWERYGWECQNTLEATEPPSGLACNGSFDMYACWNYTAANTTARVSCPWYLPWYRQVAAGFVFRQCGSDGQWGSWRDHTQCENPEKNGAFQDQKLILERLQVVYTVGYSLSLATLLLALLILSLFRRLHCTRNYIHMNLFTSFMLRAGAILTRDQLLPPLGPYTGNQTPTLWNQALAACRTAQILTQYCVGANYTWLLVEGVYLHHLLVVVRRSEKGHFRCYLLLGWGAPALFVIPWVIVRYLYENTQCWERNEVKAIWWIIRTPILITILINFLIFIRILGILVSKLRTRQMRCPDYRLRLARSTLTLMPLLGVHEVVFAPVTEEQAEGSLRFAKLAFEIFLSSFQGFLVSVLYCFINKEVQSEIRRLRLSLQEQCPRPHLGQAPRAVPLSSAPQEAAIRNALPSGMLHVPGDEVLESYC
Protocol: A series of GIP antagonist peptides were evaluated at blocking human GIP (hGIP) agonism and the induction of cAMP. Briefly, rat INS-1 cells having pGloSensor-22F (Promega) were constructed and used to evaluate GIPR agonism and antagonism. […] The conformational change leads to the activation of the luciferase enzyme, thereby allowing detection of activation of GIPR, which produces cAMP upon activation.
To assay for GIPR agonism, rat INS-1 cells having pGloSensor-22F biosensor were treated with increasing concentrations of GIP(Ag). Immediately after the addition, the luminescence of the cells was measured, normalized using the basal luminescence and plotted.
GIPR antagonism was measured as the inhibition of GIP(Ag)-induced activation of the cAMP-luciferase reporter gene in rat INS-1 cells having pGloSensor-22F biosensor. The following GIP derivatives accessed in this assay for GIPR antagonism: GIP(Ant 3-30), GIP(Ant 3-30NH2), (GIP(Ant 3-30) having amidated carboxy terminus), GIP(AntPro3), GIP(AntPro3NH2), GIP(Ant3-30, Pro3) and GIP(Ant3-30, Pro3NH2). Briefly, rat INS-1 cells having pGloSensor-22F were treated with increasing doses of the above various GIP derivatives, mixed with […] GIP(Ag). Immediately after the addition, the luminescence of the cells was measured, normalized using the basal luminescence and plotted.
The GIP(Ag) was re-evaluated across a broader concentration range. Rat INS-1 cells having pGloSensor-22F biosensor were treated with increasing concentrations of GIP(Ag). Immediately after the addition, the luminescence of the cells was measured, normalized using the basal luminescence and plotted.
The GIP(AntPro3) and GIP(AntPro3NH2) were re-evaluated across a broader concentration range. Briefly, rat INS-1 cells having pGloSensor-22F were treated with increasing doses of GIP(AntPro3) and GIP(AntPro3NH2), mixed with […] GIP(Ag). Immediately after the addition, the luminescence of the cells was measured, normalized using the basal luminescence and plotted.

[1] = tested on: HFD-fed mice (Male C57BL/6); assay: glucose tolerance test (GTT) model in HFD-fed mice; format: in vivo; details: for serum insulin time course following glucose administration: FIG. 7C; for serum glucose time course following glucose administration: i.v. treatment, 18 hours fast, 2 g/kg glucose, versus PBS control (200 to about 800 mg/dl), FIG. 7A
Protocol: Cages were changed once, then changed once a week.
The mice administered the above treatment by i.v. injections. The mice were then fasted for 18 hours and administered a dose of 2 g/kg glucose by i.v. injections. Blood samples were drawn by tail clip bleeding at 15, 30 and 60 minutes post dosing and cardiac bleeding was used at 2 hours after glucose injection as end-point.

[2] = tested on: HFD-fed mice (Male C57BL/6); assay: longer-term obesity model in HFD-fed mice; details: for blood glucose levels: Days 0, 1, 10 and 15, compared to the untreated mice, FIG. 8E; for liver histology: hepatocellular ballooning and steatosis: H&E; for plasma insulin levels on Day 1: between 15 and 120 minutes after treatment, one way ANOVA p<0.05, FIG. 8C left panel; for average daily food intake: compared to the untreated mice, FIG. 8D; for liver weight: livers of PBS control mice versus treated mice / subcutaneous white adipose tissue (sWAT) weight: day 19 necropsy; for liver weight: livers of PBS control mice versus treated mice: FIG. 8G; for subcutaneous white adipose tissue (sWAT) weight: versus PBS control, FIG. 8H; for tolerability: obesity model; for plasma insulin levels on Day 15: one way ANOVA p<0.0001, FIG. 8C right panel; for change in body weight: tail vein dosing Day 0, 4, 7, 10, 14, 18, FIG. 8A
Excerpt: Briefly, mice (Male C57BL/6) were of approximately 13 weeks of age were housed 4 mice per cage. Following 2 weeks of acclimation, mice were introduced to 60% kcal HFD (Research Diets D12492). Cages were changed once, then changed once a week. Weekly body weights and non-fasted blood glucose were collected. […] The longer-term obesity model assesses a number of end points associated with obesity related type 2 diabetes (FIG. 6A).
Mice (Male C57BL/6) were of approximately 13 weeks of age were housed 4 mice per cage. Following 2 weeks of acclimatation, mice were introduced to 60% kcal HFD (Research Diets D12492). Cages were changed once, then changed once a week. Weekly body weights and non-fasted blood glucose were collected.
Mice were injected by tail vein with vehicle or the drugs on Day 0, Day 4, Day 7, Day 10, Day 14, and Day 18. Body weights were measured every 2 days. Change in body weight was calculated and plotted.
Cumulative food intake was measured between day 0 and 3, between day 4 and 7, between day 7 and day 11, and between day 11 and day 14, and represented as average daily food intake. For food consumption, remaining food was weighed on days 3, 8, and 15, and subtracted from the starting weight. This value was then normalized to the number of mice in the cage, and the number of days the mice had access to the food prior to weighing.
Blood glucose levels were measured on Days 0, 1, 10 and 15 and plotted.
On day 19 during terminal necropsy, liver and subcutaneous white adipose tissue were recovered weighed from treated animals.
To further analyze the changes in liver, histopathological analysis was conducted. Briefly, the liver tissue was stained with hematoxylin and eosin (H&E) and evaluated using standard techniques.

[3] = biological target: T2, glucose-dependent insulinotropic polypeptide receptor (GIPR) (Homo sapiens, UniProt P48546); assay: GeneBLAzer GIPR-CRE-bla HEK293T cell-based reporter assay; details: increasing amounts, FIG. 3B
T2 construct: host or cells: HEK293T (GeneBLAzer GIPR-CRE-bla)
T2 sequence (P48546 22-466): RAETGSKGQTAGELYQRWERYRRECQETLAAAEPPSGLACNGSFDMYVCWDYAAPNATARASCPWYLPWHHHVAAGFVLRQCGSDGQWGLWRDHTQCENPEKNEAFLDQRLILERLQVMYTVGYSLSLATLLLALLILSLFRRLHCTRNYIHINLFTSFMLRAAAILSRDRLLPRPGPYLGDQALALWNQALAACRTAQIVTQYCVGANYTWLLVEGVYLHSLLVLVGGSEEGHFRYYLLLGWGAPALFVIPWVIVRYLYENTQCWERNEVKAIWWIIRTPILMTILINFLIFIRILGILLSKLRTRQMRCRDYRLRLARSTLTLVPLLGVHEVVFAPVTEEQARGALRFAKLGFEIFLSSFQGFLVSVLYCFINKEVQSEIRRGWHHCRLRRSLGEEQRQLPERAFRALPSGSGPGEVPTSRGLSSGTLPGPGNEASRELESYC
Protocol: This assay is diagrammatically represented in FIG. 3A. […] In the presence of the β-lactamase LiveBLAzer™ substrate, cells expressing β-lactamase fluoresce blue (460 nm), while those not expressing β-lactamase fluoresce green (530 nm); higher 460/530 ratio indicates the activation of GIPR.
Briefly, GeneBLAzer® GIPR-CRE-bla HEK293T cells were added to wells of black-wall assay plates. […] To each well, LiverBLAzer-FRET B/G substrate mixture was added. The plate was covered with plate sealer and incubated at room temperature for 2 hours in the dark. Fluorescence emission was measured on SpectraMax plate reader at 460 nm and 530 nm with excitation set to 409 nm. After subtraction of background, average value at 460 nm (blue color) was divided by average value at 530 nm (green color) to obtain the 460/530 ratio.

GIP receptor (GIPR) = biological target: T3, GIP receptor (GIPR) (Rattus norvegicus, UniProt P43219); assay: cAMP-Glo assay in rat insulinoma INS-1 cells harboring a cAMP-luciferase reporter gene; format: cell-based; details: 1 hour glucose, then 2 hour incubation, FIG. 4A
T3 construct: endogenous in cells; host or cells: rat INS-1 insulinoma cells (with cAMP-luciferase reporter / pGloSensor-22F biosensor)
T3 sequence (P43219 19-455): T1 sequence (P43219 19-455)
Excerpt: Rat insulinoma INS-1 cells harboring a cAMP-luciferase reporter gene were used to study the activation of GIPR. Without wishing to be bound by theory, the activation of GIPR leads to temporary depletion of ATP because of consumption of ATP in cyclization reaction to produce cAMP as well as by phosphorylation by protein kinase A of its substrate. Without wishing to be bound by theory, the temporary depletion of ATP leads to an inhibition of luciferase activity, which needs ATP as a substrate.

[4] = broader concentration range, FIG. 5B

| Substance | inhibition of GIP(Ag)-induced activation of the cAMP-luciferase reporter gene (GIPR antagonism) (GIPR; [4]) | inhibition of GIP(Ag)-induced activation of the cAMP-luciferase reporter gene (GIPR antagonism) (GIPR; FIG. 5A) | serum insulin time course following glucose administration [1] | serum glucose time course following glucose administration [1] | glucose tolerance ([1]; summary of GTT model) | blood glucose levels [2] | weights of individual mice ([2]; FIG. 8B) | liver histology: hepatocellular ballooning and steatosis ([2]; FIG. 8J) | plasma insulin levels on Day 1 [2] | average daily food intake [2] | liver weight: livers of PBS control mice versus treated mice [2] | subcutaneous white adipose tissue (sWAT) weight [2] | tolerability [2] | plasma insulin levels on Day 15 [2] | decrease in liver collagen staining relative to tirzepatide or dulaglutide ([2]; picrosirius red, FIG. 8I) | liver collagen staining (fibrosis) ([2]; picrosirius red, FIG. 8I) | change in body weight [2] | 460/530 ratio, indicative of the activation of GIPR [3] | inhibition of luciferase (GIPR activation, cAMP accumulation) (GIP receptor (GIPR)) | liver histology: hepatocellular ballooning and steatosis ([2]; higher magnifications, compared to untreated animals, FIG. 8K) |
| --- | --- | --- | --- | --- | --- | --- | --- | --- | --- | --- | --- | --- | --- | --- | --- | --- | --- | --- | --- | --- |
| GIP(AntPro3): GIP antagonist peptide, SEQ ID NO: 97 (YAPGTFISDYSIAMDKIHQQDFVNWLLAQKGKKNDWKHNITQ) | dose-dependent inhibition of GIP(Ag)-induced activation | more potent inhibition of GIP agonist signaling than the others tested; also recorded: maximal level of a dose-dependent inhibition of GIP(Ag)-induced activation |  |  |  |  |  |  |  |  |  |  |  |  |  |  |  |  |  |  |
| GIP(AntPro3NH2): GIP antagonist peptide GIP(AntPro3), presumably having amidated carboxy terminus (YAPGTFISDYSIAMDKIHQQDFVNWLLAQKGKKNDWKHNITQ-NH2) | dose-dependent inhibition of GIP(Ag)-induced activation | more potent inhibition of GIP agonist signaling than the others tested; also recorded: maximal level of a dose-dependent inhibition of GIP(Ag)-induced activation |  |  |  |  |  |  |  |  |  |  |  |  |  |  |  |  |  |  |
| GLP-1-Fc-GIP(AntPro3): GLP-1 fused to GIP antagonist peptide (amino acids 1-42 having E3P mutation) via IgG1 hinge-CH2-CH3 Fc domain; SEQ ID NO: 95 |  |  | rapid induction of insulin | much smaller increase in serum glucose | improved glucose tolerance | decrease in blood glucose | induced weight loss | a decrease in hepatocellular ballooning and steatosis | rapid decrease in insulin levels | decrease in food intake | much heavier compared to the mice receiving treatments | decreased | well tolerated and no overt toxicities were noted | significant decrease in the levels of insulin | greater decrease in collagen staining | a decrease in collagen staining | progressive weight loss |  |  |  |
| dulaglutide [reference compound] |  |  |  |  |  | decrease in blood glucose |  | a decrease in hepatocellular ballooning and steatosis | rapid decrease in insulin levels | decrease in food intake | much heavier compared to the mice receiving treatments | decreased | well tolerated and no overt toxicities were noted | significant decrease in the levels of insulin |  | a decrease in collagen staining | progressive weight loss |  |  |  |
| tirzepatide [reference compound] |  |  | rapid induction of insulin | much smaller increase in serum glucose |  | decrease in blood glucose |  | a decrease in hepatocellular ballooning and steatosis |  | decrease in food intake | much heavier compared to the mice receiving treatments | decreased |  | significant decrease in the levels of insulin |  | a decrease in collagen staining | progressive weight loss | dose-dependent and saturable increase in 460/530 ratio | dose-dependent and saturable inhibition of luciferase with similar potency | significant decrease in hepatocellular ballooning and steatosis |
